Assay results as given in paper PMC8980233, “Differentiating the Neuropharmacological Properties of Nicotinic Acetylcholine Receptor-Activating Alkaloids” (Frontiers in Pharmacology, 2022).
pEC50: −log10 of the molar value.

Key:
[1] = system: C57Bl/6 mice; assay: SmartCube behavioral profiling; type: in vivo; details: single i.p. injection
Text: The SmartCube^ ® system is a unique mouse behavior profiling system developed by PsychoGenics Inc. It extracts over 2000 spontaneous and challenge-induced behavioral features during a session ([Alexandrov et al., 2015]; [Alexandrov et al., 2016]). The recorded behavioral parameters are then compared against the behavioral profiles of marketed reference compounds in the database, and the test compounds are classified into known drug classes using PsychoGenics’ proprietary bioinformatics algorithms. In brief, mice were i. p. injected with vehicle or test compound at 10 ml/kg body weight and placed in the SmartCube^ ® arena (24 cm × 25 cm) 15 min later. Spontaneous and stimulus-induced behaviors of mice were recorded using force sensors distributed throughout the arena during a 45-min test session. In addition, three high-resolution video cameras provided a constant 3-dimensional (3D) view of the mouse behavior in the SmartCube^ ® arena throughout the testing period. The bedding was vacuumed, and the arena was cleaned with NOLVASAN^ ® solution between each run. Data from the SmartCube^ ® test were processed using PsychoGenics’ proprietary Computer Vision feature extraction, Bayesian probabilistic density models, and data mining algorithms, trained on a large library of reference compounds with known therapeutic indications to predict the underlying class of each test compound ([Alexandrov et al., 2015]; [Alexandrov et al., 2016]). Twelve mice were tested per condition. Mice were terminated after the completion of the SmartCube^ ® test.
The doses were calculated based on the free base molecular weight. The doses were selected based on the tolerability test results.

[2] = system: zebrafish (Danio rerio; strain AB); assay: Zebrafish novel tank test (NTT)
Protocol: Adult male and female wild-type zebrafish were treated with the compounds for 20 min in a final volume of 50 ml in a 250-ml treatment beaker one fish at a time. The fish were briefly rinsed in fresh system water, and then immediately transferred to a trapezoidal tank (14.6 cm height x 5.5 cm width x 27.9 cm top length and x 23.6 cm bottom length) filled with 1.5 L system water. The behavior of the fish was monitored for the next 5 min by using the Noldus EthoVision XT system (Wageningen, Netherlands), with the camera placed approximately 1 m from the test tank. The part of the tank filled with water (11.5 cm height) was virtually divided into top, center, and bottom of equal heights (approximately 3.8 cm per segment) for the analysis. The average time spent at the top and bottom portions of the tank was analyzed to determine the anxiety-like behavior of fish. The average total distance travelled and freezing time were calculated to determine the effects of the compounds on the general behavior of fish. Freezing was defined by a complete cessation of movement except for gills and eyes ([Kalueff et al., 2013]). A minimum of 12 fish (6 females and 6 males) per condition were used for the study. The experimenter was blind to the test conditions.
If not, the dose was reduced until no obvious signs of tolerability problems were observed. […] The concentrations were calculated based on the free base molecular weight. Buspirone—a clinical anxiolytic drug used acutely and chronically to investigate the change in the anxiety-like behavior ([Maximino, et al., 2011]; [Maximino, et al., 2013])—was included as a positive control.

[3] = system: dopamine release from striatal synaptosomes; assay: In vitro [3H]dopamine release from crude striatal synaptosomes; type: biochemical, rat; details: for pEC50: striatal synaptosomes
Protocol: In brief, male Sprague Dawley rats (200–225 g) were terminated by cervical dislocation followed by decapitation. The striatums or hippocampi were dissected and homogenized in ice-cold 0.32 M sucrose using a Dounce homogenizer. The homogenates were centrifuged at 100 x g for 5 min to pellet cell debris. The supernatants were collected and centrifuged at 17,000 x g for 10 min at 4°C to pellet crude synaptosomes.
The [^3H]norepinephrine- or [^3H]dopamine-treated crude synaptosomes were loaded onto closed filter chambers containing Whatman® Grade GF/C Glass Microfiber filters (Sigma-Aldrich, Merck KGaA, Darmstadt, Germany) and placed in a superfusion system. […] To ensure an even flow over the synaptosomal bed, trapped air bubbles were removed from the filters prior to collection of the fractions. After a superfusion period of 40 min, three basal fractions (1.5 ml/fraction) were collected first, followed by three fractions (1.5 ml/fraction) containing the test compound. Two additional fractions were collected in the presence of 30 mM KCl to depolarize the synaptosomes. […] Once all fractions were collected, the filters holding the crude synaptosome samples were removed and dried overnight at room temperature. On the following day, the scintillation cocktail was added and the filters were counted to determine residual radioactivity.
Compound-evoked release of neurotransmitters was calculated by subtracting the counts per minute (CPM) in the two basal fractions collected immediately prior to compound addition from those in the two fractions collected immediately following compound addition. The compound-evoked release was then expressed as a percentage of the basal release from that chamber. Potassium-evoked release was calculated by subtracting the CPM in the fraction immediately prior to KCl addition from the CPM in the […] immediately following potassium addition. Stimulated release was calculated as the percentage of basal release for that chamber. The increase in stimulated release above the baseline (no compound) release for that experimental run was determined, and the latter values were plotted on the graphs. Dose–response curves were determined using non-linear curve fitting in Prism (GraphPad Software, Inc, San Diego, CA, United States). All experiments were repeated at least three times.

[4] = only at the highest dose tested (10 mg/L)
[5] = 1, 3, and 10 mg/L, 20 min treatment

C1=CCC(c2cccnc2)NC1 (racemic) [Anatabine, (±)-Anatabine]
SmartCube drug classification / behavioral features ([1]; all doses tested): no detectable effect
total distance travelled ([2]; 0.3 and 10 mg/L): reduced
freezing time ([2]; only at 0.3 mg/L): increased
time spent at the bottom [2, 4]: reduced the time spent at the bottom
time spent at the top [2, 4]: increased the time spent at the top
pEC50 [3]: 5.75

CN1CCC[C@H]1c1cccnc1 [Nicotine, (-)-Nicotine]
SmartCube drug classification / behavioral features ([1]; highest dose 0.5 mg/kg body weight): anxiolytic-like behavior features
time spent at the bottom [2, 5]: reduced the time spent at the bottom
time spent at the top [2, 5]: increased the time spent at the top
freezing response ([2]; 1 and 10 mg/L): no freezing response
total distance traveled ([2]; 1 and 10 mg/L): decreased total distance traveled
pEC50 [3]: 6.72

CN1C(=O)CC[C@H]1c1cccnc1 [Cotinine, (-)-cotinine]
SmartCube drug classification / behavioral features ([1]; all doses tested): no detectable effect
freezing time ([2]; 100 mg/L): without affecting their freezing time
total distance traveled ([2]; 100 mg/L): reduced
time spent at the bottom ([2]; 100 mg/kg, 20 min treatment): spent less time at the bottom
time spent at the top ([2]; any doses (30, 100, and 300 mg/L)): not affected
time spent at the bottom ([2]; other concentrations (30 and 300 mg/L)): no effect
concentration inducing anxiolytic-like effect, fold higher than nicotine ([2]; zebrafish): 100 fold
dopamine release ([3]; at higher concentrations): 20–30%
